We go through three molecules from US20130023563A1, “AMIDINOANILINE DERIVATIVE” (AJINOMOTO CO., INC., priority 2010, published 2013).

Counter-ions that a name gives are not always drawn.

One data set addresses FXa (Homo sapiens, UniProt P00742). Description: Measurement of inhibitory activity against activated factor X (chromogenic substrate S-2222). It counts as biochemical. To be noted: 0.015 U/ml FXa, 0.2 mM S-2222, absorbance 405 nm; read-out: FXa (pIC50) (converted). As to the method:
Experimental Example 1 Measurement of Inhibitory Activity Against Activated Factor X Activity
(§1) Using a 96-well plate (#3396, Costar), 100 mM Tris-HC1 buffer (130 μL) containing 0.02% Tween 20, 0.1% PEG6000 and 0.2M NaCl was admixed with 0.015 U/ml FXa (10 μL) and a test compound (10 μL) for 10 min and a color developing substrate 0.2 mM S-2222 (50 μL) was added. Using a microplate reader Benchmark Plus (BIO-RAD), the reaction rate was measured from the time course changes at absorbance 405 nm. Using the reaction rate of the control as 100%, the negative logarithmic value of the concentration that can suppress the reaction rate of the control by 50% was taken as the pIC50 value.

Data set [1] can be described thus: Evaluation of stability in liver S9 fraction. It counts as in vitro ADME. To be noted: human liver S9 fraction 2 mg/mL, 2 μM, 37° C. As to the method:
Experimental Example 5 Evaluation of Stability in Liver S9 Fraction
Metabolism reaction mixed solution (0.1 mM EDTA-100 mM potassium phosphate buffer (pH 7.4), 2 mg/mL human liver S9 fraction, 0.5 mM oxidized nicotinamide adenine dinucleotide phosphate, 5 mM glucose-6-phosphoric acid, 1 unit/mL glucose-6-phosphate dehydrogenase) was pre-warmed at 37° C. for 5 min. After pre-warming, DMSO solution of the substrate was added such that the concentration of the final drug solution was 2 μM, and the metabolism reaction was started at 37° C. A given amount was sampled at 0 min, 5 min, 10 min and 30 min from the start of the reaction, 0.1 mg/mL dichlorvos-containing acetonitrile was added, and blended to discontinue the reaction. After discontinuation of the reaction, a deproteination treatment was performed by a centrifugation operation at 15000 rpm for 5 min. To the centrifugation supernatant was added 0.3% aqueous formic acid solution, admixed and the mixture was subjected to the measurement by LC/MS/MS. Then, as the residual ratio (%) at 30 min later, the ratio relative to the concentration at 0 min was calculated.

Data set [2] has as its target activated factor IIa (thrombin) (Homo sapiens, UniProt P00734). Description: Measurement of inhibitory activity against activated factor II (chromogenic substrate S-2238). Format: biochemical. To be noted: 0.125 U/ml thrombin, 0.1 mM S-2238, absorbance 405 nm; read-out: FIIa (pIC50) (converted). The procedure:
Experimental Example 2 Measurement of Inhibitory Activity Against Activated Factor II (FIIa, Thrombin)
as §1, with “mM Tris-HCl” for “mM Tris-HC1”, “with 0.125” for “with 0.015”, “U/ml activated factor IIa (thrombin)” for “U/ml FXa”, “substrate 0.1” for “substrate 0.2”, “mM S-2238” for “mM S-2222”

The nature of data set [3]: Evaluation of stability in plasma. It counts as in vitro ADME. The settings on record: human plasma, 37° C., read-out: T½. As to the method: Experimental Example 4 Evaluation of stability in plasma
To human plasma (495 μL) was added 5 μL from a solution of the test compound prepared to 200 μM (final drug solution concentration 2 μM), and the mixture was incubated at 37° C. At 0 min, 1 min, 2 min, 5 min and 10 min from the addition of the drug solution, 50 μL each was sampled, 0.1 mg/ml DDVP-containing acetonitrile (350 μL) was added, and the reaction was discontinued by blending them. After discontinuation of the reaction, a deproteination treatment was performed by a centrifugation operation at 15000 rpm for 5 min. The centrifugation supernatant (350 μL) was dried to solidness, concentrated, dissolved in aqueous solution (100 μL) of 20% acetonitrile and 0.1% formic acid and the mixture was subjected to the measurement by LC/MS/MS.
The half-life (T1/2) was calculated using initial 3rd-4th time points.

Another data set has as its system human plasma. The data set is described as follows: Anti-blood coagulant activity, aPTT method, Sysmex CA-1500 (Experimental Example 3-1). Format: biochemical. The settings on record: negative logarithmic value of the concentration that prolongs aPTT of the control 2 times. The procedure:
Experimental Example 3-1 Measurement of Anti-Blood Coagulant Activity
Examples 1, 8, 9, 11, 13, 16-19 and 22 were measured according to the following method.
An aPTT measurement method using totally automatic blood coagulation time measuring apparatus Sysmex CA-1500 was used. A 10 mg/ml DDVP solution (DDVP standard product, Wako) (4 μL) and a test compound solution (20 μL) were placed in a sample tube (MS-18, Japan Medical Science), human plasma (standard human plasma for blood coagulation test, GCH-100A, Sysmex) (180 μL) was added and the mixture was used as a test sample. The test sample (50 μL) was incubated at 37° C. for 1 min, data fi APTT (rabbit brain-derived cephalin, DADE Behiring) (50 μL) was added, and the mixture was further incubated at 37° C. for 2 min. To the sample solution was added 0.02M calcium chloride (50 μL), and the time until plasma coagulation was automatically measured.
As the anti-blood coagulant activity, the negative logarithmic value of the concentration that prolongs aPTT of the control 2 times is shown as paPTT2.

Sequence of FXa (P00742 235-488 limits assumed): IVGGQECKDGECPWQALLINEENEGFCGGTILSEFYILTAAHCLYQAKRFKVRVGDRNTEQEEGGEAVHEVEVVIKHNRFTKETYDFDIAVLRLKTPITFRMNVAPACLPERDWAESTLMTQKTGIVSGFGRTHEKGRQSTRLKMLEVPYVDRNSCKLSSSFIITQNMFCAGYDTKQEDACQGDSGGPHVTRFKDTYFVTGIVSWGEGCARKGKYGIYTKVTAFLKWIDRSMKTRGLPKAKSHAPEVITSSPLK
Sequence of FXa (P00742 41-179 partner limits assumed): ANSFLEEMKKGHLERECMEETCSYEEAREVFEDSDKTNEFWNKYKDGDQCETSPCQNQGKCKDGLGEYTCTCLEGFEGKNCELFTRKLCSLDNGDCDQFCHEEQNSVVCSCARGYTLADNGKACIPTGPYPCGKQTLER

In the case of `N=C(N)c1cccc(N2CCC[C@H]2COC(=O)c2ccc(C(=N)N3CCCC3)cc2)c1` [compound of Ex. 22, ((2S)-1-{3-[amino(imino)methyl]phenyl}pyrrolidin-2-yl)methyl 4-[imino(pyrrolidin-1-yl)methyl]benzoate 2 trifluoroacetate], the IC50 at FXa was 398 nM; in data set [2], over 100000 nM. Besides, the “residual ratio (%) of liver S9 fraction 30 min later” value in data set [1] was 80%. For the same molecule, the half-life at 2 μM in data set [3] is under 1 min. Also, the paPTT2 in the data set with human plasma amounted to 6.03.

On to `N=C(N)c1cccc(N2C[C@H](OCc3ccccc3)C[C@H]2C(=O)Oc2ccc(C(=N)N3CCCC3)cc2)c1` [compound of Ex. 13, 4-[imino(pyrrolidin-1-yl)methyl]phenyl (4R)-1-{3-[amino(imino)methyl]phenyl}-4-(benzyloxy)-L-prolinate 2 trifluoroacetate], for which the IC50 on FXa is 339 nM; in data set [2] it was 288 nM. Besides, in data set [1], the “residual ratio (%) of liver S9 fraction 30 min later” value was found to be 86%. Besides, in data set [3], the half-life at 2 μM worked out at 8.2 min. In the data set on human plasma, this molecule gave a paPTT2 of 5.59.

For the molecule `CC(=N)N1CCC(Oc2ccc(OC(=O)[C@H]3CCCN3c3cccc(C(=N)N)c3)cc2)CC1` [compound of Ex. 11, 4-[(1-ethanimidoylpiperidin-4-yl)oxy]phenyl 1-{3-[amino(imino)methyl]phenyl}-D-prolinate 2 trifluoroacetate], the IC50 is 105 nM at FXa and 347 nM in data set [2]. For the same molecule, the “residual ratio (%) of liver S9 fraction 30 min later” value in data set [1] stood at 85%. In data set [3], the half-life at 2 μM is under 1 min. In addition, the paPTT2 in the data set with human plasma was 6.25.
